Test results as given in US20240101540A1, “TARGETED PROTEIN DEGRADATION OF PARP14 FOR USE IN THERAPY” (Ribon Therapeutics, Inc., priority 2022, published 2024).
Counter-ions that a name gives are not always drawn.

The molecules below were run against T1, HiBiT tagged PARP14 (Homo sapiens, UniProt Q460N5) (assay: HiBiT assay for the degradation of PARP14 (HiBiT tagged PARP14 in LgBiT expressing Jurkat cells, 2 or 24 hours)). Conditions: Assay B (Example B): HiBiT tagged PARP14 degradation in LgBiT expressing Jurkat cells, read-out: DC50.
T1 construct: engineered to contain a HiBiT tag on both alleles of the PARP14 gene; endogenous in cells; host or cells: Jurkat cells stably transfected with LgBiT (Promega), PARP14 locus edited by CRISPR/Cas9
Type: cell-based
Summary of the method: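 Luminescence from HiBiT–LgBiT complementation served as proxy for endogenous PARP14 level in edited LgBiT Jurkat cells (5,000/well). After 2 or 24 h compound exposure at 37 °C, signal read with Live Cell Substrate, expressed as % of 0.1% DMSO control, and fitted (4-parameter, free Hill) for DC50.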

T1 sequence (Q460N5 whole entry): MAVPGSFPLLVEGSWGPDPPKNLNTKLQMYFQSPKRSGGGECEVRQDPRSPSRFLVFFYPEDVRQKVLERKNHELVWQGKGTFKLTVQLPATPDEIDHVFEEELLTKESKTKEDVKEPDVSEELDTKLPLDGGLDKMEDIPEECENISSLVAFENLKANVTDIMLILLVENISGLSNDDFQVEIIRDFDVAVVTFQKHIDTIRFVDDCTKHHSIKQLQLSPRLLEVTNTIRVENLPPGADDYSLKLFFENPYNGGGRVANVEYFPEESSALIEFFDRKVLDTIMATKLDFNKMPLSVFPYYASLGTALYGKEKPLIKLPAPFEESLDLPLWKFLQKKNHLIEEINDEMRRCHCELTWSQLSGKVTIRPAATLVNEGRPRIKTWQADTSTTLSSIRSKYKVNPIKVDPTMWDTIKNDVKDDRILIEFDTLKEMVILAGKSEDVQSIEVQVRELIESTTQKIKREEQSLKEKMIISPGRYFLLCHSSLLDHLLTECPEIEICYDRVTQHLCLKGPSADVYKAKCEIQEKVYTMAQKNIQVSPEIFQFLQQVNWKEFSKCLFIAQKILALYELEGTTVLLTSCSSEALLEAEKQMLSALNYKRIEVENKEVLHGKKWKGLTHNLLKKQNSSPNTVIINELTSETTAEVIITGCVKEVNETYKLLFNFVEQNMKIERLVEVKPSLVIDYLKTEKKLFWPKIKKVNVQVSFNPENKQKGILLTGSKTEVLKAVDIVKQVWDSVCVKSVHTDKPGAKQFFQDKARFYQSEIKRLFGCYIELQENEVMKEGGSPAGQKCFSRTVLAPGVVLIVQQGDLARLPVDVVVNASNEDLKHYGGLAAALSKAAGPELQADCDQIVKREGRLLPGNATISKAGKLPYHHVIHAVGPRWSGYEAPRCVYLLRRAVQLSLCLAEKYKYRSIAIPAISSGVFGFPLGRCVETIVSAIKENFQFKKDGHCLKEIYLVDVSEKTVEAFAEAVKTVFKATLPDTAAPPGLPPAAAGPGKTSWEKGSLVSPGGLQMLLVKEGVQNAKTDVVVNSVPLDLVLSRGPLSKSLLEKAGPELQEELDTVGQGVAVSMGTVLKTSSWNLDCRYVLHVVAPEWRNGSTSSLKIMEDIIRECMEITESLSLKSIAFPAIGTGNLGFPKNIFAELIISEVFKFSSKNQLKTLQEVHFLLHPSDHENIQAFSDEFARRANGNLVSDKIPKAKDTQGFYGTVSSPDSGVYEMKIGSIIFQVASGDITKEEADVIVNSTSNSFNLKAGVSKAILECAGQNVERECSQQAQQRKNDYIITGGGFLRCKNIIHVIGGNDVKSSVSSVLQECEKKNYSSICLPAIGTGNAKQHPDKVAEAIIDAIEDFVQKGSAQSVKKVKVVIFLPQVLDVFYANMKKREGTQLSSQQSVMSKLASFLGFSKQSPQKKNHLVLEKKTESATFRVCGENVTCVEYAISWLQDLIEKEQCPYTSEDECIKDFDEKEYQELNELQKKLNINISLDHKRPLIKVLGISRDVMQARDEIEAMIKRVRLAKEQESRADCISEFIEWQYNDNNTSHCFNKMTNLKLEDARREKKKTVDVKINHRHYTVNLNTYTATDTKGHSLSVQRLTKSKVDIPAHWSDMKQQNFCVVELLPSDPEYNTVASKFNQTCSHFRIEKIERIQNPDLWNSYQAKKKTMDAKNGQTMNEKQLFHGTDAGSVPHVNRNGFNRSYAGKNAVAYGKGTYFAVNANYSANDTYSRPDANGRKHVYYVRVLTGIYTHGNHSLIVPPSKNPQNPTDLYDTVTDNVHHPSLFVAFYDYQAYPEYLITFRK

Row | DC50 | SMILES
1 | < 30 nM | O=C1CCC(Nc2ccc(N3CCC(N4CCC(COc5cc(F)c6c(=O)[nH]c(CC7CC7)nc6c5)CC4)CC3)c(F)c2)C(=O)N1 (stereo not shown) [Example 219, 3-((4-(4-(((2-(cyclopropylmethyl)-5-fluoro-4-oxo-3,4-dihydroquinazolin-7-yl)oxy)methyl)-[1,4′-bipiperidin]-1′-yl)-3-fluorophenyl)amino)piperidine-2,6-dione formate]
2 | < 30 nM | O=C1CCC(Nc2ccc(N3CCC(CN4CCC(C#Cc5cc(F)c6c(=O)[nH]c(CSC7CCOCC7)nc6c5)CC4)CC3)c(F)c2)C(=O)N1 (stereo not shown) [Example 220, 3-((3-fluoro-4-(4-((4-((5-fluoro-4-oxo-2-(((tetrahydro-2H-pyran-4-yl)thio)methyl)-3,4-dihydroquinazolin-7-yl)ethynyl)piperidin-1-yl)methyl)piperidin-1-yl)phenyl)amino)piperidine-2,6-dione formate]
3 | < 30 nM | O=C1CCC(Nc2ccc(N3CCC(N4CC(N5CCC(COc6cc(F)c7c(=O)[nH]c(CSC8CCOCC8)nc7c6)CC5)C4)CC3)cc2F)C(=O)N1 (stereo not shown) [Example 221, 3-((2-fluoro-4-(4-(3-(4-(((5-fluoro-4-oxo-2-(((tetrahydro-2H-pyran-4-yl)thio)methyl)-3,4-dihydroquinazolin-7-yl)oxy)methyl)piperidin-1-yl)azetidin-1-yl)piperidin-1-yl)phenyl)amino)piperidine-2,6-dione formate]
4 | < 30 nM | O=C1CCC(Nc2ccc(N3CCC(N4CCC(COc5cc(F)c6c(=O)[nH]c(CSC7CCOCC7)nc6c5)CC4)CC3)cc2F)C(=O)N1 (stereo not shown) [Example 222, 3-((2-fluoro-4-(4-(((5-fluoro-4-oxo-2-(((tetrahydro-2H-pyran-4-yl)thio)methyl)-3,4-dihydroquinazolin-7-yl)oxy)methyl)-[1,4′-bipiperidin]-1′-yl)phenyl)amino)piperidine-2,6-dione]
5 | < 30 nM | O=C1CCC(Nc2ccc(N3CCC(N4CCC(CCOc5cc(F)c6c(=O)[nH]c(CSC7CCOCC7)nc6c5)CC4)CC3)c(F)c2)C(=O)N1 (stereo not shown) [Example 223, 3-((3-fluoro-4-(4-(2-((5-fluoro-4-oxo-2-(((tetrahydro-2H-pyran-4-yl)thio)methyl)-3,4-dihydroquinazolin-7-yl)oxy)ethyl)-[1,4′-bipiperidin]-1′-yl)phenyl)amino)piperidine-2,6-dione]
6 | < 30 nM | O=C1CCC(Nc2ccc(N3CCC(N4CCC(CN5CCC(COc6cc(F)c7c(=O)[nH]c(CSC8CCOCC8)nc7c6)CC5)CC4)CC3)c(F)c2)C(=O)N1 (stereo not shown) [Example 224, 3-((3-fluoro-4-(4-((4-(((5-fluoro-4-oxo-2-(((tetrahydro-2H-pyran-4-yl)thio)methyl)-3,4-dihydroquinazolin-7-yl)oxy)methyl)piperidin-1-yl)methyl)-[1,4′-bipiperidin]-1′-yl)phenyl)amino)piperidine-2,6-dione]
7 | < 30 nM | O=C1CCC(Nc2ccc(N3CCC(N4CCC(C(=O)N5CCC(COc6cc(F)c7c(=O)[nH]c(CSC8CCOCC8)nc7c6)CC5)CC4)CC3)c(F)c2)C(=O)N1 (stereo not shown) [Example 225, 3-((3-fluoro-4-(4-(4-(((5-fluoro-4-oxo-2-(((tetrahydro-2H-pyran-4-yl)thio)methyl)-3,4-dihydroquinazolin-7-yl)oxy)methyl)piperidine-1-carbonyl)-[1,4′-bipiperidin]-1′-yl)phenyl)amino)piperidine-2,6-dione]
8 | < 30 nM | O=C1CCC(Nc2ccc(N3CCN(CCN4CCC(C#Cc5cc(F)c6c(=O)[nH]c(CSC7CCOCC7)nc6c5)CC4)CC3)c(F)c2)C(=O)N1 (stereo not shown) [Example 226, 3-((3-fluoro-4-(4-(2-(4-((5-fluoro-4-oxo-2-(((tetrahydro-2H-pyran-4-yl)thio)methyl)-3,4-dihydroquinazolin-7-yl)ethynyl)piperidin-1-yl)ethyl)piperazin-1-yl)phenyl)amino)piperidine-2,6-dione formate]
9 | < 30 nM | O=C1CCC(Nc2ccc(N3CC4(CC(CN5CCC(COc6cc(F)c7c(=O)[nH]c(CSC8CCOCC8)nc7c6)CC5)C4)C3)c(F)c2)C(=O)N1 (stereo not shown) [Example 227, 3-((3-fluoro-4-(6-((4-(((5-fluoro-4-oxo-2-(((tetrahydro-2H-pyran-4-yl)thio)methyl)-3,4-dihydroquinazolin-7-yl)oxy)methyl)piperidin-1-yl)methyl)-2-azaspiro[3.3]heptan-2-yl)phenyl)amino)piperidine-2,6-dione formate]
10 | < 30 nM | O=C1CCC(Nc2ccc(N3CCC(N4CCC(N5CCC(COc6cc(F)c7c(=O)[nH]c(CSC8CCOCC8)nc7c6)CC5)CC4)CC3)c(F)c2)C(=O)N1 (stereo not shown) [Example 228, 3-((3-fluoro-4-(4-(((5-fluoro-4-oxo-2-(((tetrahydro-2H-pyran-4-yl)thio)methyl)-3,4-dihydroquinazolin-7-yl)oxy)methyl)-[1,4′:1′,4″-terpiperidin]-1″-yl)phenyl)amino)piperidine-2,6-dione diformate]
11 | < 30 nM | COc1cc(N2CCC(CN3CCC(COc4cc(F)c5c(=O)[nH]c(CSC6CCOCC6)nc5c4)CC3)CC2)c(F)cc1NC1CCC(=O)NC1=O (stereo not shown) [Example 229, 3-((5-fluoro-4-(4-((4-(((5-fluoro-4-oxo-2-(((tetrahydro-2H-pyran-4-yl)thio)methyl)-3,4-dihydroquinazolin-7-yl)oxy)methyl)piperidin-1-yl)methyl)piperidin-1-yl)-2-methoxyphenyl)amino)piperidine-2,6-dione]
12 | < 30 nM | O=C1CCC(Nc2ccc(N3CCC(N4CC(N5CCC(COc6cc(F)c7c(=O)[nH]c(CSC8CCOCC8)nc7c6)CC5)C4)CC3)c(C(F)(F)F)c2)C(=O)N1 (stereo not shown) [Example 230, 3-((4-(4-(3-(4-(((5-fluoro-4-oxo-2-(((tetrahydro-2H-pyran-4-yl)thio)methyl)-3,4-dihydroquinazolin-7-yl)oxy)methyl)piperidin-1-yl)azetidin-1-yl)piperidin-1-yl)-3-(trifluoromethyl)phenyl)amino)piperidine-2,6-dione]
13 | < 30 nM | O=C1CCC(Nc2ccc(N3CCC(CN4CCC(N5CCC(COc6cc(F)c7c(=O)[nH]c(CSC8CCOCC8)nc7c6)CC5)CC4)CC3)c(F)c2)C(=O)N1 (stereo not shown) [Example 231, 3-((3-fluoro-4-(4-((4-(((5-fluoro-4-oxo-2-(((tetrahydro-2H-pyran-4-yl)thio)methyl)-3,4-dihydroquinazolin-7-yl)oxy)methyl)-[1,4′-bipiperidin]-1′-yl)methyl)piperidin-1-yl)phenyl)amino)piperidine-2,6-dione]
14 | < 30 nM | O=C1CCC(Nc2ccc(N3CCC(N4CC(CN5CCC(COc6cc(F)c7c(=O)[nH]c(CSC8CCOCC8)nc7c6)CC5)C4)CC3)c(F)c2)C(=O)N1 (stereo not shown) [Example 232, 3-((3-fluoro-4-(4-(3-((4-(((5-fluoro-4-oxo-2-(((tetrahydro-2H-pyran-4-yl)thio)methyl)-3,4-dihydroquinazolin-7-yl)oxy)methyl)piperidin-1-yl)methyl)azetidin-1-yl)piperidin-1-yl)phenyl)amino)piperidine-2,6-dione]
15 | < 30 nM | O=C1CCC(Nc2ccc(N3CCC(N4CC(N5CCC(COc6ccc7c(=O)[nH]c(CSC8CCOCC8)nc7c6)CC5)C4)CC3)c(F)c2)C(=O)N1 (stereo not shown) [Example 233, 3-((3-fluoro-4-(4-(3-(4-(((4-oxo-2-(((tetrahydro-2H-pyran-4-yl)thio)methyl)-3,4-dihydroquinazolin-7-yl)oxy)methyl)piperidin-1-yl)azetidin-1-yl)piperidin-1-yl)phenyl)amino)piperidine-2,6-dione]
16 | < 30 nM | O=C1CCC(Nc2ccc(N3CCN(CCN4CCC(COc5cc(F)c6c(=O)[nH]c(CSC7CCOCC7)nc6c5)CC4)C(=O)C3)c(F)c2)C(=O)N1 (stereo not shown) [Example 234, 3-((3-fluoro-4-(4-(2-(4-(((5-fluoro-4-oxo-2-(((tetrahydro-2H-pyran-4-yl)thio)methyl)-3,4-dihydroquinazolin-7-yl)oxy)methyl)piperidin-1-yl)ethyl)-3-oxopiperazin-1-yl)phenyl)amino)piperidine-2,6-dione]
17 | < 30 nM | O=C1CCC(Nc2ccc(N3CCC(N4CC(N5CCC(CCOc6cc(F)c7c(=O)[nH]c(CSC8CCOCC8)nc7c6)CC5)C4)CC3)c(F)c2)C(=O)N1 (stereo not shown) [Example 235, 3-((3-fluoro-4-(4-(3-(4-(2-((5-fluoro-4-oxo-2-(((tetrahydro-2H-pyran-4-yl)thio)methyl)-3,4-dihydroquinazolin-7-yl)oxy)ethyl)piperidin-1-yl)azetidin-1-yl)piperidin-1-yl)phenyl)amino)piperidine-2,6-dione]
18 | < 30 nM | O=C1CCC(Nc2ccc(F)c(N3CCC(N4CC(N5CCC(COc6cc(F)c7c(=O)[nH]c(CSC8CCOCC8)nc7c6)CC5)C4)CC3)c2)C(=O)N1 (stereo not shown) [Example 236, 3-((4-fluoro-3-(4-(3-(4-(((5-fluoro-4-oxo-2-(((tetrahydro-2H-pyran-4-yl)thio)methyl)-3,4-dihydroquinazolin-7-yl)oxy)methyl)piperidin-1-yl)azetidin-1-yl)piperidin-1-yl)phenyl)amino)piperidine-2,6-dione]
19 | < 30 nM | O=C1CCC(Nc2ccc(N3CCC(N4CC(N5CCC(COc6cc(F)c7c(=O)[nH]c(CSC8CCCCC8)nc7c6)CC5)C4)CC3)c(F)c2)C(=O)N1 (stereo not shown) [Example 237, 3-({4-[4-(3-{4-[({2-[(cyclohexylsulfanyl)methyl]-5-fluoro-4-oxo-3H-quinazolin-7-yl}oxy)methyl]piperidin-1-yl}azetidin-1-yl)piperidin-1-yl]-3-fluorophenyl}amino)piperidine-2,6-dione formate]
